Test results from PubChem BioAssay (NCI).
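Results reflect a 48-hour exposure of cells in 96-well plates to compound at five concentrations. TGI: concentration producing complete growth inhibition.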

Assays:
Experiment in all cases: NCI anticancer screen, dose series, 48 h
SK-MEL-5 melanoma = system: SK-MEL-5 melanoma
MDA-N = system: MDA-N
OVCAR-4 ovarian = system: OVCAR-4 ovarian
SK-OV-3 ovarian = system: SK-OV-3 ovarian
MDA-MB-435 = system: MDA-MB-435
CCRF-CEM leukemia = system: CCRF-CEM leukemia
SK-MEL-28 melanoma = system: SK-MEL-28 melanoma
NCI-H460 lung = system: NCI-H460 lung
COLO 205 colon = system: COLO 205 colon
RXF 393 renal = system: RXF 393 renal
NCI-H23 lung = system: NCI-H23 lung
SW-620 colon = system: SW-620 colon
MCF7 breast = system: MCF7 breast
OVCAR-3 ovarian = system: OVCAR-3 ovarian
M14 melanoma = system: M14 melanoma
SF-295 CNS = system: SF-295 CNS
SK-MEL-2 melanoma = system: SK-MEL-2 melanoma
HCT-116 colon = system: HCT-116 colon
NCI-H226 lung = system: NCI-H226 lung
UACC-257 melanoma = system: UACC-257 melanoma
SR leukemia = system: SR leukemia
KM12 colon = system: KM12 colon
LOX IMVI melanoma = system: LOX IMVI melanoma
A498 renal = system: A498 renal
SF-539 CNS = system: SF-539 CNS
U251 CNS = system: U251 CNS
UO-31 renal = system: UO-31 renal
MALME-3M melanoma = system: MALME-3M melanoma
HCC-2998 colon = system: HCC-2998 colon
T-47D breast = system: T-47D breast
MOLT-4 leukemia = system: MOLT-4 leukemia
MDA-MB-231 breast = system: MDA-MB-231 breast
NCI-H522 lung = system: NCI-H522 lung
OVCAR-5 ovarian = system: OVCAR-5 ovarian
IGROV1 ovarian = system: IGROV1 ovarian
CAKI-1 renal = system: CAKI-1 renal
RPMI-8226 leukemia = system: RPMI-8226 leukemia
TK-10 renal = system: TK-10 renal
HT29 colon = system: HT29 colon
UACC-62 melanoma = system: UACC-62 melanoma
HCT-15 colon = system: HCT-15 colon
OVCAR-8 ovarian = system: OVCAR-8 ovarian
SF-268 CNS = system: SF-268 CNS
EKVX NSCLC = system: EKVX NSCLC
BT-549 breast = system: BT-549 breast
SN12C renal = system: SN12C renal
HOP-92 NSCLC = system: HOP-92 NSCLC
786-0 renal = system: 786-0 renal
HS 578T breast = system: HS 578T breast
HOP-62 NSCLC = system: HOP-62 NSCLC
DU-145 prostate = system: DU-145 prostate
ACHN renal = system: ACHN renal
SNB-75 CNS = system: SNB-75 CNS
SNB-19 CNS = system: SNB-19 CNS
A549 NSCLC = system: A549 NSCLC
K-562 leukemia = system: K-562 leukemia
NCI/ADR-RES ovarian = system: NCI/ADR-RES ovarian
PC-3 prostate = system: PC-3 prostate

COC(OC)C1OC(CO)C(n2ccc(N)nc2=O)C1O (stereo not drawn)
TGI (SK-MEL-5 melanoma): > 100 µM
TGI (MDA-N): > 100 µM
TGI (OVCAR-4 ovarian): > 100 µM
TGI (SK-OV-3 ovarian): > 100 µM
TGI (MDA-MB-435): > 100 µM
TGI (CCRF-CEM leukemia): > 100 µM
TGI (SK-MEL-28 melanoma): > 100 µM
TGI (NCI-H460 lung): > 100 µM
TGI (COLO 205 colon): > 100 µM
TGI (RXF 393 renal): > 100 µM
TGI (NCI-H23 lung): > 100 µM
TGI (SW-620 colon): > 100 µM
TGI (MCF7 breast): > 100 µM
TGI (OVCAR-3 ovarian): > 100 µM
TGI (M14 melanoma): > 100 µM
TGI (SF-295 CNS): > 100 µM
TGI (SK-MEL-2 melanoma): > 100 µM
TGI (HCT-116 colon): > 100 µM
TGI (NCI-H226 lung): > 100 µM
TGI (UACC-257 melanoma): > 100 µM
TGI (SR leukemia): > 100 µM
TGI (KM12 colon): > 100 µM
TGI (LOX IMVI melanoma): > 100 µM
TGI (A498 renal): > 100 µM
TGI (SF-539 CNS): > 100 µM
TGI (U251 CNS): > 100 µM
TGI (UO-31 renal): > 100 µM
TGI (MALME-3M melanoma): > 100 µM
TGI (HCC-2998 colon): > 100 µM
TGI (T-47D breast): > 100 µM
TGI (MOLT-4 leukemia): > 100 µM
TGI (MDA-MB-231 breast): > 100 µM
TGI (NCI-H522 lung): > 100 µM
TGI (OVCAR-5 ovarian): > 100 µM
TGI (IGROV1 ovarian): > 100 µM
TGI (CAKI-1 renal): > 100 µM
TGI (RPMI-8226 leukemia): > 100 µM
TGI (TK-10 renal): > 100 µM
TGI (HT29 colon): > 100 µM
TGI (UACC-62 melanoma): > 100 µM
TGI (HCT-15 colon): > 100 µM
TGI (OVCAR-8 ovarian): > 100 µM
TGI (SF-268 CNS): > 100 µM
TGI (EKVX NSCLC): > 100 µM
TGI (BT-549 breast): > 100 µM
TGI (SN12C renal): > 100 µM
TGI (HOP-92 NSCLC): > 100 µM
TGI (786-0 renal): > 100 µM
TGI (HS 578T breast): > 100 µM
TGI (HOP-62 NSCLC): > 100 µM
TGI (DU-145 prostate): > 100 µM
TGI (ACHN renal): > 100 µM
TGI (SNB-75 CNS): > 100 µM
TGI (SNB-19 CNS): > 100 µM
TGI (A549 NSCLC): > 100 µM
TGI (K-562 leukemia): > 100 µM
TGI (NCI/ADR-RES ovarian): > 100 µM
TGI (PC-3 prostate): > 100 µM

Cc1ccc2c(c1)NC(=O)CC(c1ccccc1)=N2
TGI (SK-MEL-5 melanoma): > 100 µM
TGI (MDA-N): 60.7 µM
TGI (OVCAR-4 ovarian): > 100 µM
TGI (SK-OV-3 ovarian): > 100 µM
TGI (MDA-MB-435): > 100 µM
TGI (SK-MEL-28 melanoma): > 100 µM
TGI (NCI-H460 lung): > 100 µM
TGI (NCI-H23 lung): > 100 µM
TGI (SW-620 colon): > 100 µM
TGI (MCF7 breast): > 100 µM
TGI (OVCAR-3 ovarian): > 100 µM
TGI (M14 melanoma): > 100 µM
TGI (SF-295 CNS): > 100 µM
TGI (SK-MEL-2 melanoma): > 100 µM
TGI (HCT-116 colon): > 100 µM
TGI (NCI-H226 lung): > 100 µM
TGI (UACC-257 melanoma): > 100 µM
TGI (SR leukemia): 64.2 µM
TGI (KM12 colon): > 100 µM
TGI (LOX IMVI melanoma): > 100 µM
TGI (A498 renal): > 100 µM
TGI (SF-539 CNS): > 100 µM
TGI (U251 CNS): > 100 µM
TGI (UO-31 renal): > 100 µM
TGI (MALME-3M melanoma): > 100 µM
TGI (HCC-2998 colon): > 100 µM
TGI (T-47D breast): > 100 µM
TGI (MOLT-4 leukemia): 85.8 µM
TGI (MDA-MB-231 breast): 79.9 µM
TGI (NCI-H522 lung): > 100 µM
TGI (OVCAR-5 ovarian): > 100 µM
TGI (IGROV1 ovarian): > 100 µM
TGI (CAKI-1 renal): > 100 µM
TGI (RPMI-8226 leukemia): 76.7 µM
TGI (TK-10 renal): > 100 µM
TGI (HT29 colon): > 100 µM
TGI (UACC-62 melanoma): > 100 µM
TGI (HCT-15 colon): > 100 µM
TGI (OVCAR-8 ovarian): > 100 µM
TGI (SF-268 CNS): > 100 µM
TGI (EKVX NSCLC): > 100 µM
TGI (BT-549 breast): > 100 µM
TGI (SN12C renal): > 100 µM
TGI (HOP-92 NSCLC): > 100 µM
TGI (786-0 renal): > 100 µM
TGI (HS 578T breast): > 100 µM
TGI (HOP-62 NSCLC): > 100 µM
TGI (DU-145 prostate): > 100 µM
TGI (ACHN renal): > 100 µM
TGI (SNB-75 CNS): > 100 µM
TGI (SNB-19 CNS): > 100 µM
TGI (A549 NSCLC): > 100 µM
TGI (K-562 leukemia): 26.7 µM
TGI (NCI/ADR-RES ovarian): > 100 µM
TGI (PC-3 prostate): > 100 µM
